# Measurements taken from BindingDB's records for doi:10.3109/14756366.2010.486793 (University of Zimbabwe, 2010).
# Molecular target: glutathione S-transferase (Plasmodium falciparum)
# Assay: A range of natural products were screened for inhibition of PfGST by GST assay with CDNB as a substrate, using a 96-well SpectraMax 340 microplate spectrophotometer equipped with a kinetics mode (Molecular Devices, California). The final concentration of CDNB was 0.5 mM and of GSH was 1mM. Ethacrynic acid (ETA) and haemin were used as positive controls. The incub
row,IC50,Structure (SMILES)
1,> 100 µM,COC(=O)[C@@H]1[C@@H]2C[C@H]3N(C)CC[C@@]34c3ccccc3N(C(C)=O)[C@H]4[C@@H]2CO[C@@H]1C [Malagashanine]
2,12 µM,C=Cc1c(OC=O)cc(O)c2c1OC(c1ccc(O)c(O)c1)C(O)C2 (stereo not drawn) [TRAL-1]
3,8.5 µM,C=C1C(=O)OC2/C=C(\COC(C)=O)CC/C=C(\CO)CC(OC(C)=O)[C@@H]12 (stereo partly drawn) [JB42C]
